Test results published in patent US8455421B2, “Compositions and methods for the removal of chewing gum residues from substrates” (Expelliere Int Ltd, priority 2008, dated 2013).

System: laccase from Trametes versicolor (LTV)
Test: Compatibility of laccase with ionic liquids (oxidation of catechol to 1,2-benzoquinone)
Type: biochemical
Conditions: laccase 25 mg/L, sodium phosphate-citrate buffer 25 mM, pH 4.5, 22° C., 405 nm
Text: An important consideration in preparing ionic liquids comprising enzymes for use in the methods of the present invention is the activity of the enzyme in the presence of the ionic liquid. The compatibility of enzymes and ionic liquids can be easily determined by the skilled person by standard laboratory techniques. One suitable technique uses high throughput screening of ionic liquids and enzymes using multiple well plates. A standard enzyme-catalysed transformation may be used to analyse the activity of a particular enzyme in the presence of various ionic liquids at various concentrations. One suitable reaction is the oxidation of catechol to 1,2-benzoquinone. The progress of this reaction can be monitored visually by the dark colour of 1,2-benzoquinone and spectrally, for instance using UV-Vis spectrometry. This transformation can be represented by the following reaction scheme, in which laccase is exemplified:
Compatibility of enzymes with ionic liquid compositions was determined by high throughput screening on multiple well plates of various enzymes against various concentrations of ionic liquids in water. The oxidation of catechol to 1,2-benzoquinone was measured in aqueous sodium phosphate-citrate buffer solutions (25 mM) containing laccase (25 mgL^−1) and an ionic liquid, premixed at pH 6.0 for laccase from Agaricus bisporus (LAB) and at pH 4.5 for laccase from Trametes versicolor (LTV). The pH was verified by diluting the final reaction mixture in deionised water and measuring the pH using a pH meter. The rate of 1,2-benzoquinone formation was measured using an Agilent spectrophotometer at 405 nm and 22° C. using an extinction coefficient of 760 M^−1 cm^−1. The activity was measured over a range of ionic liquid concentrations from 0 to 99.4%, since the laccases were not soluble in the pure ionic liquids, but could be dissolved when the ionic liquids were mixed with 0.6% of buffer solution containing the enzyme.

Row | Concentration of ionic liquid in water that inactivates Laccase (LTV) | SMILES
1 | 90% | CCCCC(CC)COC(=O)CC(C(=O)OCC(CC)CCCC)S(=O)(=O)[O-].CCCCn1cc[n+](C)c1 (stereo not drawn) [[bmim][docusate], 1-methyl-3-butylimidazolium docusate]
2 | 90% | CC(O)C(=O)[O-].CCCCn1cc[n+](C)c1 [[bmim]^+[CH3CH(OH)CO2]^−]
3 | 90% | CCCCC(CC)COC(=O)CC(C(=O)OCC(CC)CCCC)S(=O)(=O)[O-].CCCC[N+]1(C)CCCC1 (stereo not drawn) [[bmpyr]^+[docusate]^−]
4 | 90% | CCCCC(CC)COC(=O)CC(C(=O)OCC(CC)CCCC)S(=O)(=O)[O-].CCn1cc[n+](C)c1 (stereo not drawn) [[emim][docusate]]
5 | 30% | CCOS(=O)(=O)[O-].CCn1cc[n+](C)c1 [[emim]^+[EtOSO3]^−]

Further lines, the compound ahead of its results:

Row | SMILES | Concentration of ionic liquid in water that inactivates Laccase (LTV)
6 | CCCC[N+](C)(C)CC.CCOS(=O)(=O)[O-] [[N4,2,1,1]^+[EtOSO3]^−] | 70%
7 | CCOS(=O)(=O)[O-].C[N+](C)(C)CCCO [[N1,1,1,3OH]^+[EtOSO3]^−] | 30%
8 | CCCCCCCC[N+](C)(C)CCCC.O=[N+]([O-])[O-] [[N8,4,1,1]^+[NO3]^−] | 90%
9 | CCOS(=O)(=O)[O-].CC[N+](C)(C)CCO [[N2,1,1,2OH]^+[EtOSO3]^−] | 30%
